According to paper PMC5989765, “The safety, tolerability, and pharmacokinetic profile of GSK2838232, a novel 2nd generation HIV maturation inhibitor, as assessed in healthy subjects” (Pharmacology Research & Perspectives, 2018):
Entries after “also recorded” stand apart in the source; their conditions may differ.

Columns and labels:
[1] = Study 204953 Part 1A: single doses 50-250 mg API PiB with RTV, healthy subjects; type: in vivo, human; details: for Cmax / Tmax / concentration at 24 h / AUC / half-life: human, plasma, oral; for Tmax / concentration at 24 h: median (range); for concentration at 24 h: read-out: C24; for AUC: read-out: AUC(0‐∞); for half-life: read-out: t½ (converted); for dose proportionality of exposure (AUC and C max): single doses 50 to 250 mg with RTV
Method: This study was planned as an extension of the previously conducted single‐ and multiple‐dose escalation studies described above. It was a double‐blind, placebo‐controlled, single and repeat dose escalation study of micronized API GSK2838232 with RTV conducted in three parts (Part 1A, Part 1B, and Part 2).
In Part 1A, a cohort of subjects was given single doses of 50, 100, and 250 mg of GSK2838232 with RTV, following 2 days of RTV predosing, in a sequential dose‐escalation design. Part 1B studied the relative bioavailability of GSK2838232 given as 100 mg (2 × 50 mg) capsules versus the reference API (PiB) in a two‐period crossover design with RTV, following 2 days of RTV predosing. In Period 3, subjects took the capsule formulation and RTV with a moderate fat meal (30% of calories from fat).
(§1) Blood samples were taken via an indwelling cannula or by direct venipuncture, collected into a di‐potassium ethylenediaminetetraacetic acid (K2 EDTA) tube, and placed on wet ice. Samples were centrifuged at approximately 1500g for 10 minutes at approximately 4°C. Exactly 500 μL of the resulting plasma was transferred into labeled 1.4 mL Matrix TrakMate Tubes containing exactly 500 μL of 50 mmol/L citrate buffer, pH 4.0, and mixed well. When 500 μL of plasma was not able to be transferred, the ratio of plasma to citrate buffer was kept at 1:1. Buffered plasma samples were kept on ice and frozen at −70°C within 1 hour of collection. Plasma samples were analyzed for GSK2838232 using a validated analytical method based on protein precipitation, followed by high performance liquid chromatography with tandem mass spectrometry (HPLC/MS/MS) analysis.
(§2) Extracts were analyzed using HPLC (Shimadzu, Nexera, 30 series) and tandem mass spectrometry detection (HPLC‐MS/MS). The mass spectrometer used was an API‐5500 using IonSpray interface (500 V) in positive mode monitoring. The mass transitions were 809.5 to 255.1 and 816.5 to 262.1 for GSK2838232 and [2H7] GSK2838232 (the isotopically labeled internal standard), respectively. The chromatographic conditions utilized a Waters Acquity UPLC BEH C18 column (50 × 2.1 mm, 1.7 μm) with mobile phases consisting of 1 mmol/L ammonium formate:formic acid (100:0.005) (mobile phase A) and acetonitrile:formic acid (100:0.1) (mobile phase B) at a flow rate of 0.6 mL/min, with pump B at 63% held for 2 minutes. The assay was validated to have precision (%RSD) of 0.7%‐6.5% (within‐run) and 1.0%‐5.9% RSD (between‐run) and with accuracy (%bias) of 0.0%‐1.6%. […] The lower limit of quantification (LLQ) was 0.5 ng/mL, using a 50 μL aliquot of K2EDTA acidified plasma. The higher limit of quantification (HLQ) was 500 ng/mL.
(§3) The PK parameters were calculated by standard noncompartmental analysis based on actual sampling times using WinNonlin Version 6.3 or higher. Estimation of AUC used the linear up/log down trapezoidal rule.

[2] = Study HMI116787: single ascending dose, food effect and RTV boosting, SDD PiB, healthy subjects; type: in vivo, human; details: for Cmax / Tmax / concentration at 24 h / AUC / half-life: human, plasma, oral; for Cmax / Tmax / concentration at 24 h / AUC / half-life / CL/F: fasted; for Cmax / AUC / half-life / CL/F: geometric mean (95% CI); for Tmax / concentration at 24 h: median (range); for concentration at 24 h: read-out: C24; for AUC: read-out: AUC(0‐∞); for half-life: read-out: t½ (converted)
Method: This study was a first‐in‐human, double‐blind, randomized, placebo‐controlled, single dose escalation study of GSK2838232 in healthy subjects conducted in two sequential cohorts with four dosing visits in each cohort. At each visit in each cohort, 6 out of the 8 subjects were randomized to receive the active dose, and 2 out of the 8 subjects were randomized to placebo. Cohort 1 tested escalating doses of 5, 10, and 20 mg GSK2838232 as a Spray Dried Dispersion (SDD) delivered as a powder‐in‐bottle (PiB) suspension; Cohort 2 tested the same formulation at doses of 50 and 100 mg, the effect of a high‐fat breakfast on a 50 mg dose, and the impact of steady‐state dosing of 100 mg once‐daily (QD) RTV on the PK of a single 10 mg dose of GSK2838232 (administered on Day 10 of the 12 days of RTV dosing). All doses were administered in a fasted state, except in the food effect portion of the study.
as §1, §2, §3

[3] = single 50 mg API PiB, fasted, with ritonavir (2 days predosing)
[4] = single 100 mg API PiB, fasted, with ritonavir (2 days predosing), geometric mean (95% CI)
[5] = single 100 mg API PiB, fasted, with ritonavir (2 days predosing)
[6] = single 250 mg API PiB, fasted, with ritonavir (2 days predosing), geometric mean (95% CI)
[7] = single 250 mg API PiB, fasted, with ritonavir (2 days predosing)
[8] = 50 mg Fed (high, 60% fat meal) versus 50 mg fasted, SDD PiB formulation, Study HMI116787
[9] = RTV for 10 days prior to 10 mg SDD, Study 116787
[10] = single 5 mg SDD PiB, without ritonavir, Study HMI116787
[11] = single 10 mg SDD PiB, with ritonavir 100 mg QD (Day 10 of 12), Study HMI116787
[12] = single 10 mg SDD PiB, without ritonavir, Study HMI116787
[13] = single 20 mg SDD PiB, without ritonavir, Study HMI116787
[14] = single 50 mg SDD PiB, without ritonavir, Study HMI116787
[15] = single 100 mg SDD PiB, without ritonavir, Study HMI116787

For `CC(C)C1=C2[C@H]3CC[C@@H]4[C@@]5(C)CC[C@H](OC(=O)CC(C)(C)C(=O)O)C(C)(C)[C@@H]5CC[C@@]4(C)[C@]3(C)CC[C@@]2([C@@H](O)CN(CCN(C)C)Cc2ccc(Cl)cc2)CC1=O` [GSK2838232], which Cmax ([1]; single 50 mg API PiB, fasted, with ritonavir (2 days predosing), geometric mean (95% CI)) is on record?
The Cmax was 15.7 ng/mL.

And the Tmax [1, 3]?
Its Tmax is 3 h.

And the concentration at 24 h [1, 3]?
The concentration at 24 h was 7.26 ng/mL.

What about the Cmax [1, 4] of the same compound?
The Cmax was 24.7 ng/mL.

What about the AUC [1, 4] of the same compound?
Its AUC is 846 ng·h/mL.

And the half-life [1, 4]?
Its half-life is 17.9 h.

And the Tmax [1, 5]?
Its Tmax is 5 h.

And the concentration at 24 h [1, 5]?
The concentration at 24 h was 13.2 ng/mL.

What about the Cmax [1, 6] of the same compound?
The Cmax was 63 ng/mL.

What about the AUC [1, 6] of the same compound?
The AUC was 1690 ng·h/mL.

What about the half-life [1, 6] of the same compound?
Its half-life is 17.9 h.

What about the Tmax [1, 7] of the same compound?
The Tmax was 5.98 h.

And the concentration at 24 h [1, 7]?
The concentration at 24 h was 24 ng/mL.

And the CL/F [1, 4]?
The CL/F was 118 (93.3, 150) L/h.

And the “dose proportionality of exposure (AUC and C max)” value [1]?
The value was “proportional PK; also recorded: proportional pharmacokinetics”.

What about the “dose proportionality of exposure (AUC and C max)” value ([1]; listed as GSK283832) of the same compound?
The value was “generally dose proportional”.

And the “Geometric least square mean ratio [90% CI], AUC(0‐∞)” value [2, 8]?
The value was 1.61 (1.266, 2.053).

What about the “Geometric least square mean ratio [90% CI], C max” value [2, 8] of the same compound?
Its value is 1.60 (0.995, 2.566).

And the “change in t½ with RTV” value [2, 9]?
Its value is “approximately doubled”.

What about the “increase in 24‐h concentration (C24) with RTV” value [2, 9] of the same compound?
Its value is about 6.4 fold.

And the “increase in AUC(0‐t) with RTV” value [2, 9]?
Its value is “approximately 10 fold”.

And the “increase in C max with RTV” value [2, 9]?
Its value is about 3 fold.

And the “bioavailability after meal relative to the fasted state” value ([2]; SDD PiB formulation, high‐fat (60%) meal, Study HMI116787)?
Its value is “approximately 1.6 fold”.

And the Cmax [2, 10]?
The Cmax was 1.52 ng/mL.

And the Tmax [2, 10]?
Its Tmax is 2.24 h.

What about the concentration at 24 h [2, 10] of the same compound?
Its concentration at 24 h is 0 ng/mL.

What about the Cmax [2, 11] of the same compound?
Its Cmax is 9.1 ng/mL.

And the AUC [2, 11]?
The AUC was 389 ng·h/mL.

What about the half-life [2, 11] of the same compound?
Its half-life is 33.7 h.

What about the Tmax [2, 11] of the same compound?
The Tmax was 4 h.

And the concentration at 24 h [2, 11]?
Its concentration at 24 h is 4.64 ng/mL.

And the Cmax [2, 12]?
Its Cmax is 3.49 ng/mL.

What about the Tmax [2, 12] of the same compound?
Its Tmax is 1.76 h.

And the concentration at 24 h [2, 12]?
Its concentration at 24 h is 0.63 ng/mL.

What about the Cmax [2, 13] of the same compound?
The Cmax was 8.09 ng/mL.

And the AUC [2, 13]?
The AUC was 104 ng·h/mL.

And the half-life [2, 13]?
The half-life was 14.1 h.

And the Tmax [2, 13]?
The Tmax was 1.75 h.

And the concentration at 24 h [2, 13]?
The concentration at 24 h was 1.54 ng/mL.

What about the Cmax [2, 14] of the same compound?
The Cmax was 13.1 ng/mL.

What about the AUC [2, 14] of the same compound?
The AUC was 195 ng·h/mL.

What about the half-life [2, 14] of the same compound?
The half-life was 17.4 h.

And the Tmax [2, 14]?
Its Tmax is 2.02 h.

And the concentration at 24 h [2, 14]?
The concentration at 24 h was 3.11 ng/mL.

And the Cmax [2, 15]?
Its Cmax is 23.7 ng/mL.

What about the AUC [2, 15] of the same compound?
Its AUC is 385 ng·h/mL.

What about the half-life [2, 15] of the same compound?
Its half-life is 18.8 h.

And the Tmax [2, 15]?
Its Tmax is 2.75 h.

And the concentration at 24 h [2, 15]?
Its concentration at 24 h is 5.93 ng/mL.

And the CL/F [2, 11]?
Its CL/F is 25.7 (18.8, 35.1) L/h.

And the CL/F [2, 13]?
Its CL/F is 193 (147, 254) L/h.

What about the CL/F [2, 14] of the same compound?
The CL/F was 256 (203, 324) L/h.

What about the CL/F [2, 15] of the same compound?
The CL/F was 260 (202, 335) L/h.

And the “increase in C max by RTV” value ([2]; single dose after steady‐state predosing with RTV 100 mg QD)?
Its value is 3 fold.
